Counter-ions that a name gives are not always drawn.
Columns and labels:
[1] = tested on: T1, potential dependent calcium channel; details: 1 μM; cited from earlier work
T1 construct: other: 1 μM

[2] = tested on: potential dependent calcium channel; assay: Measurement of potential dependent calcium channel activity using fluorescent dye (fura2) in cerebral cortex synaptosome stimulated with KCl; assay type: cell-based, rat
formalin test = details: administration in spinal cord, literature reports, result in words; cited from earlier work
[3] = tested on: rat local cerebral ischemia model; details: literature reports, result in words; cited from earlier work
[4] = tested on: rat middle cerebral artery emphraxis model; assay: Shrinking effect of infarction nidus in rat middle cerebral artery emphraxis model; assay type: in vivo; details: for volume of the infarction nidus of cerebral cortex: average value±standard error, after 24 hours; for reduction of the volume of the infarction nidus of cerebral cortex: from 30 minutes after emphraxis, vs control group, measured after 24 hours
Description: Shrinking Effect of Infarction nidus in rat Middle Cerebral Artery Emphraxis Model (I)
A calcium ion in the cell plays an important role in the expression of various cell functions. But when the calcium ion concentration in the cell rises excessively, cell affection is induced (refer to literatures 1) and 2), hereinafter, the same as this.). For example, neural cell affection induced by excitatory amino-acid occurring in the case of cerebral ischemia provokes excessive rise of the calcium ion concentration in the cell (3) and 4)). The maintenance mechanism of membrane potential fails by excitatory amino-acid which rose in the case of local cerebral ischemia (3)), the depolarization of membrane is induced (5)), and the influx of the calcium ion into the cell through the potential dependent calcium channel is increased (6) and 7)). […] The potential dependent calcium channels existing in the neural cell are classified in 6 kinds of sub-types based on the electro-physiological and pharmacological investigation (T, L, N, P, Q and R types) (9)). Among these, N, P and Q types play an important role in the liberation of glutamic acid from rat cerebral cortex synaptosome (10) and 11)).
The compound represented by the above formula (I) according to the present invention was dissolved in a physiological saline, and appropriately prepared so as to be in doses of 1.5, 5 and 15 mg/kg/h. The concentration of the specimen was calculated based on the average body weight of an animal. Further, the average body weight was calculated by measuring the body weight of all animals which are intended to be used for experiment. For example, in the case of 5 mg/kg/h, it was calculated as: concentration of specimen=5 mg×average body weight (kg)/administration volume (0.616 ml) per hour. • (2) Manufacture of nylon embolus
The embolus made from nylon stitch (Ethicon, Inc., Somerville, N.J., USA) of 4-0 monofilament was used for emphraxis of middle cerebral artery. As the nylon embolus, that prepared by previously rounding its tip with flame, fragmenting it in a length of 25 mm, and marking at a position of 17 mm from the tip with an oily felt pen was used. • (3) Implantation of catheter for intravenous administration
The implantation of catheter for intravenous administration (Atom Vein Catheter 3Fr, manufactured by ATOM MEDICAL Co., Ltd., Tokyo) was carried out under 70% laughing gas-2% halothane anaesthesia. Catheter which was filled up with a physiological saline solution was inserted from the femoral vein of left foot. • (4) Emphraxis of middle cerebral artery
The emphraxis of middle cerebral artery was carried out in accordance with the method of Longa et al (12)). The operation was carried out under 70% laughing gas-2% halothane anaesthesia just after implanting the catheter. A rat was laid in facing upward under the stereoscopic microscope for operation, the neck was cut open, and the portion where the whole carotid arteries of the right side are diverged to the external carotid artery and the internal carotid artery was confirmed. The external carotid artery was cut off at the periphery side, and the nylon embolus was inserted from the terminal of the external carotid artery which was cut off into the internal carotid artery. The embolus was inserted up to the position where the position of 17 mm from the tip of the embolus is duplicated with a branch point of the external carotid artery and the internal carotid artery, and was fixed.
The rat was caught and lifted with the cauda after 30 minutes from the emphraxis of middle cerebral artery, an indivisual which expresses clearly the one side paralysis of a fore-leg (the paralysis of a fore-leg of the opponent side which loaded infarct) was provided for experiment as an example in which middle cerebral artery was occluded and was able to make an ischemia condition. • (6) Administration of medium and specimen […]

[5] = tested on: formalin test using mouse; assay: Analgesic effect in formalin test using mouse; assay type: in vivo; details: licking time for 5 minutes
Experimental: Analgesic Effect (I) in Formalin Test Using Mouse
Therefore, the analgesic effect obtained in the case where the intravenous administration of the present compound was carried out was studied in the formalin test (3)) using a mouse.
Ddy mice (male, 4 to 7 weeks age) purchased from Japan SLC Co, were used for experiment. Preliminary feeding of 4 days or more was carried out for mice (breeding condition: a room temperature 23±1° C., air humidity 55±5%, lighting cycle of every 12 hours). The mice were accommodated by a group of approximately 20 in a cage made of polycarbonate for 20 mice in which floor cloth (White Flake, Charles River Co., Ltd., Tokyo) was spread, and were bred. At the morning of the day tested, they were moved to a laboratory. They were freely fed MF (Oriental Yeast Co., Tokyo) as a feed. Further, they drunk city water freely. […]
10 mg/kg of the present compound was intravenously administered via tail vein, 30 mg/kg of morphine was orally administered and 10 mg/kg of indomethacin was orally administered. […] Just after the administration of formalin, the licking time of an action in which a mouse licked his left hind leg was measured for 5 minutes, and it was made as an index of pain. […] Setting the licking time of the control as 100%, the suppression rate (%) of the present compound was calculated by the following calculation formula. […]

## w-Agatoxin-IVA
[1]
  inhibition against the Ca2+ influx: 64%

## COc1ccc(CCN(C)CCCC(C#N)(c2ccc(OC)c(OC)c2)C(C)C)cc1OC (centres unmarked) [Control, verapamil hydrochloride]
[2]
  IC50: > 16 µM

## CSCC[C@@H]1NC(=O)[C@H](CC(C)C)NC(=O)[C@H](CCCNC(=N)N)NC(=O)[C@H](CO)NC(=O)[C@@H]2CSSC[C@@H]3NC(=O)[C@H](CO)NC(=O)CNC(=O)[C@H]([C@@H](C)O)NC(=O)[C@H](CSSC[C@H](N)C(=O)N[C@@H](CCCCN)C(=O)NCC(=O)N[C@@H](CCCCN)C(=O)NCC(=O)N[C@@H](C)C(=O)N[C@@H](CCCCN)C(=O)N2)NC(=O)[C@H](CSSC[C@@H](C(N)=O)NC(=O)[C@H](CCCCN)NC(=O)CNC(=O)[C@H](CO)NC(=O)[C@H](CCCNC(=N)N)NC3=O)NC(=O)[C@H](CC(=O)O)NC(=O)[C@H](Cc2ccc(O)cc2)NC1=O [SNX-111]
Formalin test
  analgesic action in the formalin test: exhibits an analgesic action
[3]
  protection of neural cells in rat local cerebral ischemia model: protected the liberation of glutamic acid from cerebral cortex and subsequent neural cell affection

## CC(C)C(C#N)(CCCN1CCN(CCOc2cccc(C#N)c2)CC1)c1cccs1 (centres unmarked) [Example 75]
[4]; 1.5 mg/kg/h intravenous
  volume of the infarction nidus of cerebral cortex: 119.9±12.6 mm^3
  reduction of the volume of the infarction nidus of cerebral cortex: 26%
[4]; 5 mg/kg/h intravenous
  volume of the infarction nidus of cerebral cortex: 102.0±14.1 mm^3
  reduction of the volume of the infarction nidus of cerebral cortex: 37%
[4]; 15 mg/kg/h intravenous
  volume of the infarction nidus of cerebral cortex: 83.7±21.3 mm^3
  reduction of the volume of the infarction nidus of cerebral cortex: 49%

## CC(C)N(CCN1CCN(CCCC(C#N)(c2cccs2)C(C)C)CC1)c1ccccn1 (centres unmarked) [Example 189, 1-[4-cyano-4-(2-thienyl)-5-methylhexyl]-4-[2-{N-isopropyl-N-(2-pyridyl)amino]ethyl}Piperazine]
[5]; 10 mg/kg intravenously, formalin 5 minutes after administration
  suppression rate of licking time: 59%

## ω-agatoxin IVA
[3]
  protection of neural cells in rat local cerebral ischemia model: exhibited a protective action for neural cell

## n-conotoxin GVIA
[1]
  inhibition against the Ca2+ influx: 18%

## CN1CC[C@]23c4c5ccc(O)c4O[C@H]2[C@@H](O)C=C[C@H]3[C@H]1C5 [morphine, reference compound]
[5]; 30 mg/kg orally, formalin 30 minutes after administration
  suppression rate of licking time: 54%

## CC(C)C(C#N)(CCCN1CCN(CCOc2cccc(C#N)c2)CC1)c1ccc(C#N)s1 (centres unmarked) [Example 70]
[4]; 1.5 mg/kg/h intravenous
  volume of the infarction nidus of cerebral cortex: 128.9±12.5 mm^3
  reduction of the volume of the infarction nidus of cerebral cortex: 4%
[4]; 5 mg/kg/h intravenous
  volume of the infarction nidus of cerebral cortex: 108.0±14.9 mm^3
  reduction of the volume of the infarction nidus of cerebral cortex: 20%
[4]; 15 mg/kg/h intravenous
  volume of the infarction nidus of cerebral cortex: 75.7±11.2 mm^3
  reduction of the volume of the infarction nidus of cerebral cortex: 44%

Reference: patent US6906072B1, “Piperazine compound and pharmaceutical composition containing the compound” (Eisai Co., Ltd., priority 2000, dated 2005)
